Measured values taken from patent US8138168B1 (Takeda Pharmaceutical Company Limited, priority 2007, dated 2012).

Each molecule was assayed against T1, Recombinant human renin (Homo sapiens, UniProt P00797) (assay: In vitro enzymatic activity assay of renin inhibitors (fluorogenic peptide substrate)). Details: read-out: IC50 of Exemplified Compounds Against Renin.
T1 construct: isolate the active form (residues 67-406); made in house; host or cells: FreeStyle 293-F cells (transient expression of pcDNA3.1(+)/hREN)
T1 sequence (P00797 67-406): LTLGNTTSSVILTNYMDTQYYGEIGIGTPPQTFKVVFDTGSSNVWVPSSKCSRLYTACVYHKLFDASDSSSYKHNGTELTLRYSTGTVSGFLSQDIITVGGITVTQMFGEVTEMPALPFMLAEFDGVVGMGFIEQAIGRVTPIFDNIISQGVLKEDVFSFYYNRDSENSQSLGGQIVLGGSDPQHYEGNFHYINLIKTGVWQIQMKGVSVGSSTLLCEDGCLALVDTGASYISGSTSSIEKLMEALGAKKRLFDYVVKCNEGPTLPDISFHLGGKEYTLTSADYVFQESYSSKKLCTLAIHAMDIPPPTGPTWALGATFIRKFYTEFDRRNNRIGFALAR
Type: biochemical
How it was run: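 Enzyme: recombinant human renin, 3 nM final, 10 min compound pre-incubation at 37 °C; buffer 50 mM Hepes pH 7.4 with 0.1 mg/mL BSA or extra 2% BSA; 5% DMSO.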

`Cc1cc(C)cc(NC(=O)N2CCCC(c3nc4ccccc4[nH]3)C2)c1` (stereo not shown) [Compound 6, 3-(1H-benzo[d]imidazol-2-yl)-N-(3,5-dimethylphenyl)piperidine-1-carboxamide] and `COC(=O)[C@H](CC(C)C)NC(=O)N1CCCC(c2nc3ccccc3[nH]2)C1` (stereo partly drawn) [Compound 19, (2S)-methyl 2-(3-(1H-benzo[d]imidazol-2-yl)piperidine-1-carboxamido)-4-methylpentanoate] cannot be ordered by IC50: > 1000 nM for the first, > 1000 nM for the second.

Compared with `COCCCn1c([C@@H]2CCCN(C(=O)[C@@H]3CN(C(=O)c4ccc(Cl)cc4)C[C@H]3N)C2)nc2ccccc21` [Compound 416, ((3R,4S)-4-amino-1-(4-chlorobenzoyl)pyrrolidin-3-yl)((R)-3-(1-(3-methoxypropyl)-1H-benzo[d]imidazol-2-yl)piperidin-1-yl)methanone], `COCCCn1c([C@@H]2CCCN(C(=O)[C@@H]3CN(C(=O)c4ccc(Cl)c(Cl)c4)C[C@H]3N)C2)nc2ccccc21` [Compound 365, ((3R,4S)-4-amino-1-(3,4-dichlorobenzoyl)pyrrolidin-3-yl)((R)-3-(1-(3-methoxypropyl)-1H-benzo[d]imidazol-2-yl)piperidin-1-yl)methanone] is lower in IC50: > 1000 nM for the first, 100 to 1000 nM for the second.

Compared with `COCCCn1c([C@@H]2CCCN(C(=O)C[C@H](N)Cc3ccc4ccccc4c3)C2)nc2ccc(OC)nc21` [Compound 503, (3R)-3-amino-1-(3-(5-methoxy-3-(3-methoxypropyl)-3H-imidazo[4,5-b]pyridin-2-yl)piperidin-1-yl)-4-(naphthalen-2-yl)butan-1-one], `COCCCn1c([C@@H]2CCCN(C(=O)C[C@H](N)Cc3ccc4ccccc4c3)C2)nc2ccc(Cl)nc21` [Compound 502, (3R)-3-amino-1-(3-(5-chloro-3-(3-methoxypropyl)-3H-imidazo[4,5-b]pyridin-2-yl)piperidin-1-yl)-4-(naphthalen-2-yl)butan-1-one] is higher in IC50: 100 to 1000 nM for the first, > 1000 nM for the second.

`COCCCn1c([C@@H]2CCCN(C(=O)C[C@H](N)CNC(=O)NC3CCCC3)C2)nc2ccccc21` [Compound 332, 1-((S)-2-amino-4-((R)-3-(1-(3-methoxypropyl)-1H-benzo[d]imidazol-2-yl)piperidin-1-yl)-4-oxobutyl)-3-cyclopentylurea] and `COCCCn1c([C@@H]2CCCN(C(=O)C[C@H](N)CNC(=O)C(C)C)C2)nc2ccccc21` [Compound 333, N-((S)-2-amino-4-((R)-3-(1-(3-methoxypropyl)-1H-benzo[d]imidazol-2-yl)piperidin-1-yl)-4-oxobutyl)isobutyramide] cannot be ordered by IC50: > 1000 nM for the first, > 1000 nM for the second.

`COCCCn1c([C@@H]2CCCN(C(=O)C[C@H](N)Cc3ccc(-c4ccc(C(=O)NCCO)c(F)c4)cc3)C2)nc2ccccc21` [Compound 190, 4′-((R)-2-amino-4-((R)-3-(1-(3-methoxypropyl)-1H-benzo[d]imidazol-2-yl)piperidin-1-yl)-4-oxobutyl)-3-fluoro-N-(2-hydroxyethyl)biphenyl-4-carboxamide] and `COCCCn1c([C@@H]2CCCN(C(=O)C[C@H](N)Cc3ccc(-c4ccc5nonc5c4)cc3)C2)nc2ccccc21` [Compound 140, (R)-3-amino-4-(4-(benzo[c][1,2,5]oxadiazol-5-yl)phenyl)-1-((R)-3-(1-(3-metboxypropyl)-1H-benzo[d]imidazol-2-yl)piperidin-1-yl)butan-1-one] cannot be ordered by IC50: < 100 nM for the first, < 100 nM for the second.

`COCCCn1c([C@@H]2CCCN(C(=O)C[C@H](N)CNS(=O)(=O)c3ccccc3OC)C2)nc2ccccc21` [Compound 324, N-((S)-2-amino-4-((R)-3-(1-(3-methoxypropyl)-1H-benzo[d]imidazol-2-yl)piperidin-1-yl)-4-oxobutyl)-2-methoxybenzenesulfonamide] and `COCCCn1c([C@@H]2CCCN(C(=O)C[C@@H](N)COc3ccccc3C(=O)OC)C2)nc2ccccc21` [Compound 432, methyl 2-((R)-2-amino-4-((R)-3-(1-(3-methoxypropyl)-1H-benzo[d]imidazol-2-yl)piperidin-1-yl)-4-oxobutoxy)benzoate] cannot be ordered by IC50: > 1000 nM for the first, > 1000 nM for the second.

First: COCCCn1c([C@@H]2CCCN(C(=O)C[C@H](N)Cc3ccc(Br)cc3)C2)nc2ccccc21 [Compound 91, (R)-3-amino-4-(4-bromophenyl)-1((R)-3-(1-(3-methoxypropyl)-1H-benzo[d]imidazol-2-yl)piperidin-1-yl)butan-1-one]
Second: COCCCn1c([C@@H]2CCCN(C(=O)C[C@H](N)Cc3ccc(C(C)(C)C)cc3)C2)nc2ccccc21 [Compound 90, (R)-3-amino-4-(4-tert-butylphenyl)-1((R)-3-(1-(3-methoxypropyl)-1H-benzo[d]imidazol-2-yl)piperidin-1-yl)butan-1-one]
The IC50 of the first is higher: 100 to 1000 nM for the first, < 100 nM for the second. The second is the more potent here.

`COCCCn1c([C@@H]2CCCN(C(=O)[C@@H]3CN(S(=O)(=O)c4ccccc4OC)C[C@H]3N)C2)nc2ccccc21` [Compound 379, ((3R,4S)-4-amino-1-(2-methoxyphenylsulfonyl)pyrrolidin-3-yl)((R)-3-(1-(3-methoxypropyl)-1H-benzo[d]imidazol-2-yl)piperidin-1-yl)methanone] and `COCCCn1c([C@@H]2CCCN(C(=O)[C@@H]3CN(S(=O)(=O)c4cccc(Cl)c4C)C[C@H]3N)C2)nc2ccccc21` [Compound 353, ((3R,4S)-4-amino-1-(3-chloro-2-methylphenylsulfonyl)pyrrolidin-3-yl)((R)-3-(1-(3-methoxypropyl)-1H-benzo[d]imidazol-2-yl)piperidin-1-yl)methanone] fall in the same range of IC50: 100 to 1000 nM for the first, 100 to 1000 nM for the second.

`COCCCn1c([C@@H]2CCCN(C(=O)C[C@H](N)Cc3ccc(-c4ccccc4)cc3)C2)nc2c(Cl)cccc21` [Compound 118, (R)-3-amino-4-(biphenyl-4-yl)-1-((R)-3-(4-chloro-1-(3-methoxypropyl)-1H-benzo[d]imidazol-2-yl)piperidin-1-yl)butan-1-one] and `COCCCn1c([C@@H]2CCCN(C(=O)C[C@H](N)Cc3ccc(-c4ccccc4C)cc3)C2)nc2ccccc21` [Compound 157, (R)-3-amino-1-((R)-3-(1-(3-methoxypropyl)-1H-benzo[d]imidazol-2-yl)piperidin-1-yl)-4-(2′-methylbiphenyl-4-yl)butan-1-one] cannot be ordered by IC50: < 100 nM for the first, < 100 nM for the second.

First: COCCCn1c([C@@H]2CCCN(C(=O)[C@H](O)[C@H](N)c3ccccc3)C2)nc2ccccc21 [Compound 92, (2R,3R)-3-amino-2-hydroxy-1-((R)-3-(1-(3-methoxypropyl)-1H-benzo[d]imidazol-2-yl)piperidin-1-yl)-3-phenylpropan-1-one]
Second: COCCCn1c(C2CCCN(C(=O)C[C@H](N)c3ccccc3)C2)nc2ccccc21 (stereo partly drawn) [Compound 66, (3S)-3-amino-1-(3-(1-(3-methoxypropyl)-1H-benzo[d]imidazol-2-yl)piperidin-1-yl)-3-phenylpropan-1-one]
The IC50 of the first is lower: 100 to 1000 nM for the first, > 1000 nM for the second. The first is the more potent here.

First: COCCCn1c([C@@H]2CCCN(C(=O)[C@@H]3CN(S(=O)(=O)c4cccc(-c5nnc(C)o5)c4)C[C@H]3N)C2)nc2ccccc21 [Compound 431, ((3R,4S)-4-amino-1-(3-(5-methyl-1,3,4-oxadiazol-2-yl)phenylsulfonyl)pyrrolidin-3-yl)((R)-3-(1-(3-methoxypropyl)-1H-benzo[d]imidazol-2-yl)piperidin-1-yl)methanone]
Second: COCCCn1c([C@@H]2CCCN(C(=O)[C@@H]3CN(S(=O)(=O)c4cc(C)c(Cl)cc4C)C[C@H]3N)C2)nc2ccccc21 [Compound 344, ((3R,4S)-4-amino-1-(4-chloro-2,5-dimethylphenylsulfonyl)pyrrolidin-3-yl)((R)-3-(1-(3-methoxypropyl)-1H-benzo[d]imidazol-2-yl)piperidin-1-yl)methanone]
The IC50 of the first is higher: > 1000 nM for the first, 100 to 1000 nM for the second. The second is the more potent here.

`N[C@@H](CC(=O)N1CCCC(c2nc3ccccc3[nH]2)C1)c1ccc(C(F)(F)F)cc1` (stereo partly drawn) [Compound 25, (3S)-1-(3-(1H-benzo[d]imidazol-2-yl)piperidin-1-yl)-3-amino-3-(4-(trifluoromethyl)phenyl)propan-1-one] and `COCCCn1c([C@@H]2CCCN(C(=O)C[C@H](N)c3cccc(Cl)c3)C2)nc2ccccc21` [Compound 83, (S)-3-amino-3-(3-chlorophenyl)-1((R)-3-(1-(3-methoxypropyl)-1H-benzo[d]imidazol-2-yl)piperidin-1-yl)propan-1-one] cannot be ordered by IC50: > 1000 nM for the first, > 1000 nM for the second.

First: COCCCn1c([C@@H]2CCCN(C(=O)C[C@H](N)CNC(=O)c3cccc(N4CCCCC4)n3)C2)nc2ccccc21 [Compound 313, N-((S)-2-amino-4-((R)-3-(1-(3-methoxypropyl)-1H-benzo[d]imidazol-2-yl)piperidin-1-yl)-4-oxobutyl)-6-(piperidin-1-yl)picolinamide]
Second: COCCCn1c([C@@H]2CCCN(C(=O)C[C@H](N)COCc3ccccc3)C2)nc2ccccc21 [Compound 88, (S)-3-amino-4-(benzyloxy)-1-((R)-3-(1-(3-methoxypropyl)-1H-benzo[d]imidazol-2-yl)piperidin-1-yl)butan-1-one]
The IC50 of the first is lower: 100 to 1000 nM for the first, > 1000 nM for the second. The first is the more potent here.

Compared with `COCCCn1c([C@@H]2CCCN(C(=O)[C@@H]3CN(C(=O)c4cccc(F)c4)C[C@H]3N)C2)nc2ccccc21` [Compound 393, ((3R,4S)-4-amino-1-(3-fluorobenzoyl)pyrrolidin-3-yl)((R)-3-(1-(3-methoxypropyl)-1H-benzo[d]imidazol-2-yl)piperidin-1-yl)methanone], `COCCCn1c([C@@H]2CCCN(C(=O)[C@@H]3CN(S(=O)(=O)c4ccc(OC)cc4[N+](=O)[O-])C[C@H]3N)C2)nc2ccccc21` [Compound 381, ((3R,4S)-4-amino-1-(4-methoxy-2-nitrophenylsulfonyl)pyrrolidin-3-yl)((R)-3-(1-(3-methoxypropyl)-1H-benzo[d]imidazol-2-yl)piperidin-1-yl)methanone] is lower in IC50: > 1000 nM for the first, 100 to 1000 nM for the second.
